ChEMBL document CHEMBL4665782, “Furostanol Saponins from Trillium tschonoskii Promote the Expansion of Human Cord Blood Hematopoietic Stem and Progenitor Cells” (2020)
Activity calls are given as the source filed them. No cut-off for these calls is given here.

Experiments:
[1] = tested on: CD34-positive (myeloid/lymphoid) cell; experiment: Expansion-promoting activity against human CD34+cells assessed as increase in CD34+/CD38- cells measured after 4 days by FACS analysis; type: functional, cell-based
[2] = Expansion-promoting activity against human CD34+ cells assessed as increase in Lin-CD34+CD38-CD45RA-CD49f+CD90- multipotent progenitor cells measured after 4 days by FACS analysis relative to control; type: functional, CD34-positive (myeloid/lymphoid) cell
[3] = Expansion of human CD34+cells measured after 4 days by FACS analysis; type: functional, CD34-positive (myeloid/lymphoid) cell
[4] = tested on: CD34-positive (myeloid/lymphoid) cell; experiment: Expansion-promoting activity against human CD34+ cells assessed as increase in Lin-CD34+CD38-CD45RA-CD49f-CD90- multipotent progenitor cells measured after 4 days by FACS analysis; type: functional, cell-based

| Compound | Activity [1] | fold change (FC) [2] | fold change (FC) [3] | Activity [4] |
| --- | --- | --- | --- | --- |
| CC1=C2[C@](O)(C[C@H]3[C@@H]4C[C@@H](O)[C@@]5(O)C[C@@H](O[C@@H]6O[C@H](CO)[C@@H](O[C@@H]7O[C@@H](C)[C@H](O[C@@H]8O[C@@H](C)[C@H](O)[C@@H](O)[C@H]8O)[C@@H](O)[C@H]7O)[C@H](O)[C@H]6O[C@@H]6O[C@@H](C)[C@H](O)[C@@H](O)[C@H]6O)CC[C@]5(C)[C@H]4CC[C@]23C)C(C[C@@H](C)CO[C@@H]2O[C@H](CO)[C@@H](O)[C@H](O)[C@H]2O)C1=O (some centres undefined) | Active | 1.3 | 6.7 | Active |
| C[C@H](CC[C@@]1(O)OC2C[C@H]3[C@@H]4CC=C5C[C@@H](O[C@@H]6O[C@H](CO)[C@@H](O[C@@H]7O[C@H](CO)[C@H](O)[C@@H](O)[C@H]7O)[C@H](O)[C@H]6O[C@@H]6O[C@@H](C)[C@H](O)[C@@H](O)[C@H]6O)CC[C@]5(C)[C@H]4CC[C@]3(C)[C@@]2(O)[C@@H]1C)CO[C@@H]1O[C@H](CO)[C@@H](O)[C@H](O)[C@H]1O (some centres undefined) | Active | 1.9 | 8.8 | Active |
| CC1=C2[C@](O)(C[C@H]3[C@@H]4C[C@@H](O)[C@@]5(O)C[C@@H](O[C@@H]6O[C@H](CO)[C@@H](O[C@@H]7O[C@@H](C)[C@H](O)[C@@H](O)[C@H]7O)[C@H](O)[C@H]6O[C@@H]6O[C@@H](C)[C@H](O)[C@@H](O)[C@H]6O)CC[C@]5(C)[C@H]4CC[C@]23C)C(C[C@@H](C)CO[C@@H]2O[C@H](CO)[C@@H](O)[C@H](O)[C@H]2O)C1=O (some centres undefined) | Active |  |  | Active |
| C/C(C(=O)CC[C@@H](C)CO[C@@H]1O[C@H](CO)[C@@H](O)[C@H](O)[C@H]1O)=C1/C(=O)C[C@H]2[C@@H]3CC=C4C[C@@H](O[C@@H]5O[C@H](CO)[C@@H](O[C@@H]6O[C@@H](C)[C@H](O)[C@@H](O)[C@H]6O)[C@H](O)[C@H]5O[C@@H]5O[C@@H](C)[C@H](O)[C@@H](O)[C@H]5O)CC[C@]4(C)[C@H]3CC[C@]12C |  |  |  | Active |
| C/C(C(=O)CC[C@@H](C)CO[C@@H]1O[C@H](CO)[C@@H](O)[C@H](O)[C@H]1O)=C1/C(=O)C[C@H]2[C@@H]3CC=C4C[C@@H](O[C@@H]5O[C@H](CO)[C@@H](O)[C@H](O)[C@H]5O[C@@H]5O[C@@H](C)[C@H](O)[C@@H](O)[C@H]5O)CC[C@]4(C)[C@H]3CC[C@]12C | Active | 1 | 5.7 | Active |
| Cc1c(CC[C@@H](C)CO[C@@H]2O[C@H](CO)[C@@H](O)[C@H](O)[C@H]2O)oc2c1[C@@]1(C)CC[C@H]3[C@@H](C[C@@H](O)[C@@]4(O)C[C@@H](O[C@@H]5O[C@H](CO)[C@@H](O[C@@H]6O[C@@H](C)[C@H](O[C@@H]7O[C@@H](C)[C@H](O)[C@@H](O)[C@H]7O)[C@@H](O)[C@H]6O)[C@H](O)[C@H]5O[C@@H]5O[C@@H](C)[C@H](O)[C@@H](O)[C@H]5O)CC[C@]34C)[C@@H]1C2 | Active | 1.6 | 7.7 | Active |
| C[C@H](CC[C@@]1(O)OC2C[C@H]3[C@@H]4C[C@@H](O)[C@@]5(O)C[C@@H](O[C@@H]6O[C@H](CO)[C@@H](O[C@@H]7O[C@@H](C)[C@H](O[C@@H]8O[C@@H](C)[C@H](O)[C@@H](O)[C@H]8O)[C@@H](O)[C@H]7O)[C@H](O)[C@H]6O[C@@H]6O[C@@H](C)[C@H](O)[C@@H](O)[C@H]6O)CC[C@]5(C)[C@H]4CC[C@]3(C)[C@@]2(O)[C@@H]1C)CO[C@@H]1O[C@H](CO)[C@@H](O)[C@H](O)[C@H]1O (some centres undefined) |  | 1.8 | 8.4 | Active |
| C[C@H](CC[C@@]1(O)OC2C[C@H]3[C@@H]4C[C@@H](O)[C@@]5(O)C[C@@H](O[C@@H]6O[C@H](CO)[C@@H](O)[C@H](O)[C@H]6O[C@@H]6O[C@@H](C)[C@H](O)[C@@H](O)[C@H]6O)CC[C@]5(C)[C@H]4CC[C@]3(C)[C@@]2(O)[C@@H]1C)CO[C@@H]1O[C@H](CO)[C@@H](O)[C@H](O)[C@H]1O (some centres undefined) |  |  |  | Active |
| C/C(C(=O)CC[C@@H](C)CO[C@@H]1O[C@H](CO)[C@@H](O)[C@H](O)[C@H]1O)=C1/C(=O)C[C@H]2[C@@H]3C(=O)C=C4C[C@@H](O[C@@H]5O[C@H](CO)[C@@H](O[C@@H]6O[C@@H](C)[C@H](O)[C@@H](O)[C@H]6O)[C@H](O)[C@H]5O[C@@H]5O[C@@H](C)[C@H](O)[C@@H](O)[C@H]5O)CC[C@]4(C)[C@H]3CC[C@]12C | Active |  |  |  |
| C[C@H](CCC(=O)[C@@H](C)C1C(=O)C[C@H]2[C@@H]3CC=C4C[C@@H](O[C@@H]5O[C@H](CO)[C@@H](O)[C@H](O)[C@H]5O[C@@H]5O[C@@H](C)[C@H](O)[C@@H](O)[C@H]5O)CC[C@]4(C)[C@H]3CC[C@]12C)CO[C@@H]1O[C@H](CO)[C@@H](O)[C@H](O)[C@H]1O (some centres undefined) | Active | 1.8 | 8.4 | Active |
| C[C@H](CCC(=O)[C@@H](C)C1C(=O)C[C@H]2[C@@H]3CC=C4C[C@@H](O[C@@H]5O[C@H](CO)[C@@H](O[C@@H]6O[C@@H](C)[C@H](O)[C@@H](O)[C@H]6O)[C@H](O)[C@H]5O[C@@H]5O[C@@H](C)[C@H](O)[C@@H](O)[C@H]5O)CC[C@]4(C)[C@H]3CC[C@]12C)CO[C@@H]1O[C@H](CO)[C@@H](O)[C@H](O)[C@H]1O (some centres undefined) | Active |  |  | Active |
| Cc1c(CC[C@@H](C)CO[C@@H]2O[C@H](CO)[C@@H](O)[C@H](O)[C@H]2O)oc2c1[C@@]1(C)CC[C@H]3[C@@H](CC=C4C[C@@H](O[C@@H]5O[C@H](CO)[C@@H](O)[C@H](O)[C@H]5O[C@@H]5O[C@@H](C)[C@H](O)[C@@H](O)[C@H]5O)CC[C@@]43C)[C@@H]1C2 | Active | 0.9 | 5.5 | Active |
